From the NIST ThermoML archive (doi:10.1021/je0340755)
Numbers after ± are expanded uncertainties.

Assay: xn = mol fraction of the nth substance listed
Settings: 101.3 kPa, Liquid; for viscosity: Capillary tube (Ostwald / Ubbelohde) method

CC(O)C(C)O (stereo unspecified) [2,3-butanediol] + O
Settings	mass density, 318.15 K [kg/m3]	mass density, 328.15 K [kg/m3]	speed of sound, 318.15 K [m/s]	speed of sound, 328.15 K [m/s]	viscosity, 328.15 K [mPa·s]
x2 = 0.0546	–	971.78 ± 0.41	–	1397.7 ± 5.9	7.267 ± 0.073
x2 = 0.1435	–	973.84 ± 0.39	–	1413.9 ± 6	6.438 ± 0.071
x2 = 0.2458	–	976.48 ± 0.38	–	1431.2 ± 6	5.44 ± 0.069
x2 = 0.3539	–	979.73 ± 0.36	–	1456.9 ± 6.1	4.404 ± 0.067
x2 = 0.4502	–	983.14 ± 0.34	–	1482.2 ± 6.2	3.532 ± 0.066
x2 = 0.4989	–	985.04 ± 0.33	–	1494.1 ± 6.2	3.117 ± 0.065
x2 = 0.5503	–	987.17 ± 0.32	–	1508.7 ± 6.2	2.705 ± 0.065
x2 = 0.6581	1004.28 ± 0.29	991.86 ± 0.3	1566 ± 6.4	1537.6 ± 6.3	1.94 ± 0.064
x2 = 0.7518	1007.26 ± 0.29	995.6 ± 0.28	1595.2 ± 6.5	1567.1 ± 6.4	1.412 ± 0.063
x2 = 0.8626	1007.49 ± 0.28	997.57 ± 0.27	1605.3 ± 6.5	1596.6 ± 6.5	0.954 ± 0.063
x2 = 0.9092	1005.07 ± 0.27	996.39 ± 0.27	1598.9 ± 6.5	1594.5 ± 6.5	0.802 ± 0.063
x2 = 0.9148	1004.61 ± 0.27	996.11 ± 0.27	1596.7 ± 6.5	1592.9 ± 6.5	0.784 ± 0.063
x2 = 0.9248	1003.67 ± 0.27	995.52 ± 0.27	1596.3 ± 6.5	1590.3 ± 6.5	0.753 ± 0.063
x2 = 0.9305	1003.07 ± 0.27	995.13 ± 0.27	1590.4 ± 6.5	1585.9 ± 6.5	0.735 ± 0.063
x2 = 0.935	1002.56 ± 0.26	994.78 ± 0.27	1583.1 ± 6.5	–	0.721 ± 0.063
x2 = 0.9452	1001.27 ± 0.26	–	1580.2 ± 6.4	–	0.689 ± 0.063
x2 = 0.9542	999.96 ± 0.26	–	1578.1 ± 6.4	–	0.661 ± 0.063
x2 = 0.9703	997.18 ± 0.26	–	1571.6 ± 6.4	–	0.607 ± 0.063
x2 = 0.98	995.19 ± 0.27	–	1558.5 ± 6.4	–	0.574 ± 0.063
x2 = 0.9903	992.79 ± 0.28	–	1548.2 ± 6.3	–	0.539 ± 0.063
x2 = 0.9925	992.23 ± 0.28	–	1544.5 ± 6.3	–	0.531 ± 0.063
x2 = 0.9951	991.55 ± 0.28	–	1540 ± 6.3	–	0.521 ± 0.063
